Molecular target: T1, hFXR (Homo sapiens, UniProt Q96RI1)
T1 construct: expressed in transfected cells; host or cells: CV-1 cells
T1 sequence (Q96RI1 1-486): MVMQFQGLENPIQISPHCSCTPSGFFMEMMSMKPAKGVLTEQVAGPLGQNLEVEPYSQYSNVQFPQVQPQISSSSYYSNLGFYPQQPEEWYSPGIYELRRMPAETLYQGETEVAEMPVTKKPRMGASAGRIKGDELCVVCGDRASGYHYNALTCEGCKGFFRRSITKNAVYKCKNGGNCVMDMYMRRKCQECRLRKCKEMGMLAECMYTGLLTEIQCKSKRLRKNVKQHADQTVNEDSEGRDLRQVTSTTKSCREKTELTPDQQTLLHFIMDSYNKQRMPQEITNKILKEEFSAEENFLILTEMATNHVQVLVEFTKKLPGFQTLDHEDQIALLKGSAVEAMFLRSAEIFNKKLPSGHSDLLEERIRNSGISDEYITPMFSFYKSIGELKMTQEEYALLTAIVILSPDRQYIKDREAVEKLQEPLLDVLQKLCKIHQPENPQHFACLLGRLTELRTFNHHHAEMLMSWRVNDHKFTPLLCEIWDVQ
T1 sequence (P19793 1-462 partner): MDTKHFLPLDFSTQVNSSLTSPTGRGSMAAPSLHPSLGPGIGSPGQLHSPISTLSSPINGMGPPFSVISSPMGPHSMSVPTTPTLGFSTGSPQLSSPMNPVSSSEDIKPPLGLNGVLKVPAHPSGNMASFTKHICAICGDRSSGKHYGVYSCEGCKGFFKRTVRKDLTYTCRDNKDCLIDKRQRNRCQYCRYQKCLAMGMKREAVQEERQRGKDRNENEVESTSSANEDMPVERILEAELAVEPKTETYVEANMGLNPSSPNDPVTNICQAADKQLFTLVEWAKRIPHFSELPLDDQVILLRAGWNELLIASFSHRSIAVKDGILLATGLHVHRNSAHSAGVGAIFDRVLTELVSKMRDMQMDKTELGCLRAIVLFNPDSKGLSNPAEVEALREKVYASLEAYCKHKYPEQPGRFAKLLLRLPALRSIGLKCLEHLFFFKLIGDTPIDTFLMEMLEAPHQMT
Experiment: In Vitro FXR Assay (TK)
Format: cell-based
Conditions: CV-1 cells transfected with hFXR, hRXR, TK-ECRE-luc and pCMX-YFP; compounds incubated 18 hrs; luminescence
Description: CV-1 cells were seeded at a density of 2,000,000 cells in a T175 flask with DMEM+10% charcoal double-stripped FBS and incubated at 37° C. in 5% CO2 for 18 h (O/N).
After 18 h of incubation, the medium in the T175 flask was changed with fresh DMEM+10% charcoal super-stripped serum. In a polypropylene tube, 2500 μL OptiMEM (Life Technologies, Cat #31985-062) was combined with expression plasmids for hFXR, hRXR, TK-ECRE-luc and pCMX-YFP. The tube was then briefly vortexed and incubated at room temperature for 5 minutes. Transfection reagent (X-tremeGENE HP from Roche, Cat #06 366 236 001) was added to the OptiMEM/plasmid mixture vortexed and incubated at room temperature for 20 minutes. Following incubation, the transfection reagent/DNA mixture complex was added to cells in the T175 flask and the cells were incubated at 37° C. in 5% CO2 for 18 h (O/N).
Compounds were serially diluted in DMSO and added to transfected CV-1 cells. The cells were then incubated for 18 hrs. The next day cells were lysed and examined for luminescence.

EC50 [nM]	SMILES
> 10000	COc1ccc(-c2ccc(CN(C(=O)CC(C)(C)C)c3cccc4cnccc34)cc2)cc1C [Compound 5.01, N-(Isoquinolin-5-yl)-N-((4′-methoxy-3′-methyl-[1,1′-biphenyl]-4-yl)methyl)-3,3-dimethylbutanamide]
≤ 1000	COc1ccc(-c2ccc(CN(C(=O)CC(C)(C)C)c3nccc4cc(N5CCC(CCO)C5)ccc34)cc2)cc1C (stereo not shown) [Compound 6.14, N-(6-(3-(2-Hydroxyethyl)pyrrolidin-1-yl)isoquinolin-1-yl)-N-((4′-methoxy-3′-methyl-[1,1′-biphenyl]-4-yl)methyl)-3,3-dimethylbutanamide]
1000 to 10000	COc1ccc(-c2ccc(CN(C(=O)CC(C)(C)C)c3nccc4ccncc34)cc2)cc1C [Compound 5.04, N-((4′-Methoxy-3′-methyl-[1,1′-biphenyl]-4-yl)methyl)-3,3-dimethyl-N-(2,7-naphthyridin-1-yl)butanamide]
≤ 1000	CCCOc1ccc2c(N(Cc3ccc(-c4ccc(OC)c(C)c4)cc3)C(=O)CC(C)(C)C)nccc2c1 [Compound 11.02, N-((4′-Methoxy-3′-methyl-[1,1′-biphenyl]-4-yl)methyl)-3,3-dimethyl-N-(6-propoxyisoquinolin-1-yl)butanamide]
≤ 1000	COc1ccc(-c2ccc(CN(C(=O)CC(C)(C)C)c3nccc4cc(OCC(=O)N(C)C)ccc34)cc2)cc1C [Compound 8.02, N-(6-(2-(Dimethylamino)-2-oxoethoxy)isoquinolin-1-yl)-N-((4′-methoxy-3′-methyl-[1,1′-biphenyl]-4-yl)methyl)-3,3-dimethylbutanamide]
≤ 1000	COc1ccc(-c2ccc(CN(C(=O)CC(C)(C)C)c3nccc4cccnc34)cc2)cc1C [Compound 4.09, N-((4′-Methoxy-3′-methyl-[1,1′-biphenyl]-4-yl)methyl)-3,3-dimethyl-N-(1,7-naphthyridin-8-yl)butanamide]
≤ 1000	COc1ccc(-c2ccc(CN(C(=O)CC(C)(C)C)c3nccc4cc(N5CCC(O)C5)ccc34)cc2)cc1C (stereo not shown) [Compound 6, N-(6-(3-Hydroxypyrrolidin-1-yl)isoquinolin-1-yl)-N-((4′-methoxy-3′-methyl-[1,1′-biphenyl]-4-yl)methyl)-3,3-dimethylbutanamide]
> 10000	COc1ccc(-c2ccc(CN(C(=O)CC(C)(C)C)c3nccc4c(Br)cccc34)cc2)cc1C [Compound 4.07, N-(5-Bromoisoquinolin-1-yl)-N-((4′-methoxy-3′-methyl-[1,1′-biphenyl]-4-yl)methyl)-3,3-dimethylbutanamide]
≤ 1000	COc1ccc(-c2ccc(CN(C(=O)CC(C)(C)C)c3nccc4cc(CCCO)ccc34)cc2)cc1C [Compound 24, N-(6-(3-Hydroxypropyl)isoquinolin-1-yl)-N-((4′-methoxy-3′-methyl-[1,1′-biphenyl]-4-yl)methyl)-3,3-dimethylbutanamide]
≤ 1000	COc1ccc2c(N(C[C@H]3CC[C@H](c4ccc(OC)c(C)c4)CC3)C(=O)CC(C)(C)C)nccc2c1 [Compound 1]
1000 to 10000	COc1ccc(-c2ccc(CN(C(=O)CC(C)(C)C)c3nccc4cc(OCCN(C)C)ccc34)cc2)cc1C [Compound 8.04, N-(6-(2-(Dimethylamino)ethoxy)isoquinolin-1-yl)-N-((4′-methoxy-3′-methyl-[1,1′-biphenyl]-4-yl)methyl)-3,3-dimethylbutanamide]
≤ 1000	COC(=O)c1cc(CN(C(=O)CC(C)(C)C)c2nccc3cc(OC)ccc23)ccc1-c1ccc(OC)c(C)c1 [Compound 20.02, Methyl 4′-methoxy-4-((N-(6-methoxyisoquinolin-1-yl)-3,3-dimethylbutanamido)methyl)-3′-methyl-[1,1′-biphenyl]-2-carboxylate]
≤ 1000	COc1ccc(-c2ccc(CN(C(=O)CC(C)(C)C)c3nccc4cc(OCCCO)ccc34)cc2)cc1C [Compound 8, N-(6-(3-Hydroxypropoxy)isoquinolin-1-yl)-N-((4′-methoxy-3′-methyl-[1,1′-biphenyl]-4-yl)methyl)-3,3-dimethylbutanamide]
> 10000	COc1ccc(-c2ccc(CN(C(=O)CC(C)(C)C)c3nccc4cc(OC5CCNCC5)ccc34)cc2)cc1C [Compound 28, N-((4′-Methoxy-3′-methyl-[1,1′-biphenyl]-4-yl)methyl)-3,3-dimethyl-N-(6-(piperidin-4-yloxy)isoquinolin-1-yl)butanamide]
> 10000	COc1ccc(-c2ccc(CN(C(=O)CC(C)(C)C)c3nccc4cc(OC5CCN(C(=O)OC(C)(C)C)CC5)ccc34)cc2)cc1C [Compound 8.05, tert-Butyl 4-((1-(N-((4′-methoxy-3′-methyl-[1,1′-biphenyl]-4-yl)methyl)-3,3-dimethylbutanamido)isoquinolin-6-yl)oxy)piperidine-1-carboxylate]
≤ 1000	COc1ccc([C@H]2CC[C@H](CN(C(=O)CC(C)(C)C)c3nccc4cc(C)ccc34)CC2)cc1C [Compound 3, N-((trans-4-(4-Methoxy-3-methylphenyl)cyclohexyl)methyl)-3,3-dimethyl-N-(6-methylisoquinolin-1-yl)butanamide]
≤ 1000	COc1ccc(-c2ccc(CN(C(=O)CC(C)(C)C)c3nccc4cc(C(C)(C)O)ccc34)cc2)cc1C [Compound 17, N-(6-(2-Hydroxypropan-2-yl)isoquinolin-1-yl)-N-((4′-methoxy-3′-methyl-[1,1′-biphenyl]-4-yl)methyl)-3,3-dimethylbutanamide]
≤ 1000	COc1ccc(-c2ccc(CN(C(=O)CC(C)(C)C)c3nccc4cc(N5CC(O)C5)ccc34)cc2)cc1C [Compound 6.03, N-(6-(3-Hydroxyazetidin-1-yl)isoquinolin-1-yl)-N-((4′-methoxy-3′-methyl-[1,1′-biphenyl]-4-yl)methyl)-3,3-dimethylbutanamide]
> 10000	COc1ccc(-c2ccc(CN(C(=O)CC(C)(C)C)c3nccc4cc(OCC(=O)O)ccc34)cc2)cc1C [Compound 29, 2-((1-(N-((4′-Methoxy-3′-methyl-[1,1′-biphenyl]-4-yl)methyl)-3,3-dimethylbutanamido)isoquinolin-6-yl)oxy)acetic acid]
≤ 1000	COc1ccc(-c2ccc(CN(C(=O)CC(C)(C)C)c3nccc4cc(N5CC(CO)C5)ccc34)cc2)cc1C [Compound 6.15, N-(6-(3-(Hydroxymethyl)azetidin-1-yl)isoquinolin-1-yl)-N-((4′-methoxy-3′-methyl-[1,1′-biphenyl]-4-yl)methyl)-3,3-dimethylbutanamide]
≤ 1000	COc1ccc2ccnc(N(Cc3ccc(-c4ccc(OC)c(C)c4)cc3)C(=O)CC(C)(C)C)c2c1 [Compound 11.03, N-((4′-Methoxy-3′-methyl-[1,1′-biphenyl]-4-yl)methyl)-N-(7-methoxyisoquinolin-1-yl)-3,3-dimethylbutanamide]
≤ 1000	COc1ccc(-c2ccc(CN(C(=O)CC(C)(C)C)c3nccc4cc(-c5nccs5)ccc34)cc2)cc1C [Compound 14.01, N-((4′-Methoxy-3′-methyl-[1,1′-biphenyl]-4-yl)methyl)-3,3-dimethyl-N-(6-(thiazol-2-yl)isoquinolin-1-yl)butanamide]
> 10000	COc1ccc(-c2ccc(CN(C(C)=O)c3nccc4cc(C(C)(C)O)ccc34)cc2)cc1C [Compound 18, N-(6-(2-Hydroxypropan-2-yl)isoquinolin-1-yl)-N-((4′-methoxy-3′-methyl-[1,1′-biphenyl]-4-yl)methyl)acetamide]
≤ 1000	COc1ccc(-c2ccc(CN(C(=O)CC(C)(C)C)c3nccc4ccsc34)cc2)cc1C [Compound 4.04, N-((4′-Methoxy-3′-methyl-[1,1′-biphenyl]-4-yl)methyl)-3,3-dimethyl-N-(thieno[2,3-c]pyridine-7-yl)butanamide]

SMILES	EC50 [nM]
COc1ccc(-c2ccc(CN(C(=O)CC(C)(C)C)c3nccc4cc(OCCC(C)O)ccc34)cc2)cc1C (stereo not shown) [Compound 10.03, N-(6-(3-Hydroxybutoxy)isoquinolin-1-yl)-N-((4′-methoxy-3′-methyl-[1,1′-biphenyl]-4-yl)methyl)-3,3-dimethylbutanamide]	≤ 1000
